Assay: xn = mol fraction of the nth substance listed
Conditions: 101 kPa, Liquid; for viscosity: Capillary tube (Ostwald / Ubbelohde) method; for mass density: Vibrating tube method

CN1CCNCC1 [N-methylpiperazine] + C1C[C@@H]2[C@H]3CC[C@H](C3)[C@@H]2C1
Conditions	mass density, 298.15 K [kg/m3]	mass density, 303.15 K [kg/m3]	mass density, 308.15 K [kg/m3]	mass density, 313.15 K [kg/m3]	mass density, 323.15 K [kg/m3]	viscosity, 298.15 K [mPa·s]	viscosity, 303.15 K [mPa·s]	viscosity, 308.15 K [mPa·s]	viscosity, 313.15 K [mPa·s]	viscosity, 323.15 K [mPa·s]
x1 = 0.1337	925.63	921.65	917.65	913.66	905.68	2.432	2.214	2.021	1.844	1.574
x1 = 0.2543	920.97	916.91	912.83	908.76	900.62	2.247	2.051	1.868	1.694	1.452
x1 = 0.3678	916.92	912.79	908.63	904.48	896.19	2.125	1.925	1.752	1.583	1.351
x1 = 0.4768	913.25	909.05	904.83	900.62	892.2	2.016	1.822	1.655	1.492	1.281
x1 = 0.577	910.05	905.8	901.53	897.26	888.74	1.943	1.756	1.583	1.435	1.237
x1 = 0.672	907.32	903.04	898.72	894.4	885.79	1.921	1.708	1.545	1.399	1.195
x1 = 0.76	904.59	900.27	895.93	891.58	882.9	1.893	1.681	1.512	1.362	1.162
x1 = 0.8407	902.15	897.92	893.59	889.24	880.55	1.894	1.656	1.502	1.35	1.154
x1 = 0.9242	900.27	895.92	891.51	887.11	878.34	1.877	1.632	1.467	1.318	1.116
x1 = 1	899.28	894.9	890.5	886.07	877.28	1.854	1.583	1.409	1.258	1.064

C1C[C@@H]2[C@H]3CC[C@H](C3)[C@@H]2C1 [exo-tetrahydrodicyclopentadiene] + CCN(CC)CC
Conditions	mass density, 298.15 K [kg/m3]	mass density, 303.15 K [kg/m3]	mass density, 308.15 K [kg/m3]	mass density, 313.15 K [kg/m3]	mass density, 323.15 K [kg/m3]	viscosity, 298.15 K [mPa·s]	viscosity, 303.15 K [mPa·s]	viscosity, 308.15 K [mPa·s]	viscosity, 313.15 K [mPa·s]	viscosity, 323.15 K [mPa·s]
x2 = 0	931.29	927.38	923.46	919.54	911.7	2.8	2.549	2.332	2.124	1.811
x2 = 0.1347	906.47	902.17	898.15	894.12	885.86	2.034	1.871	1.714	1.57	1.36
x2 = 0.2521	883.66	879.54	875.44	871.32	863.09	1.535	1.421	1.324	1.217	1.063
x2 = 0.365	861.16	856.98	852.8	848.59	840.22	1.188	1.109	1.035	0.955	0.842
x2 = 0.4709	839.56	835.31	831.04	826.75	818.22	0.961	0.893	0.829	0.77	0.69
x2 = 0.5711	818.66	814.33	809.98	805.62	796.93	0.779	0.738	0.691	0.649	0.578
x2 = 0.6683	798.2	793.7	789.27	784.85	775.97	0.653	0.618	0.583	0.547	0.492
x2 = 0.7585	778.5	773.97	769.46	764.95	755.83	0.55	0.524	0.503	0.463	0.431
x2 = 0.8414	759.95	755.41	750.85	746.25	737.14	0.476	0.455	0.433	0.406	0.373
x2 = 0.9136	743.67	739.07	734.45	729.79	720.56	0.419	0.399	0.38	0.368	0.327

— the NIST ThermoML archive (doi:10.1016/j.tca.2012.06.011)
